The source of these data is US20030147899A1, “Endogenous hormone adjuvant and uses thereof” (priority 1999, published 2003).

SMILES strings stand for the structures. Entries after “also recorded” stand apart in the source; their conditions may differ.

The subject of experiment [1] is DTH reaction mounted against OXA (pinna thickness). In words: Skin DTH response to OXA challenge, hormones given at sensitization (immunization) phase. Format: in vivo, rat. Particulars: hormone ip 2 h before sensitization with 1.5% OXA: epinephrine 0.5 mg/kg, corticosterone 5 mg/kg, or both; OXA ear challenge six days after immunization. The method, then: (§1) Young adult, male Sprague Dawley rats (150-300 g) (Harlan Sprague Dawley, Indianapolis, Ind.) were housed in plastic cages in the accredited (American Association of Accreditation of Laboratory Animal Care) animal facilities of The Rockefeller University (New York, N.Y.). The animal room was maintained on a 12 h light-dark cycle (lights on 7 am). Animals were given rat chow and water ad libitum.
This was necessary for restoring important permissive functions of corticosterone which are lost following ADX (18-20). […] Unlike constant replacement (via pellets or osmotic pumps), drinking water corticosterone also facilitates the normal termination of a stress-induced ACTH response (22, 23), and simulates the circadian corticosterone rhythm as animals drink at the beginning of the active period (16).
No anesthesia was used subsequently. An area of approximately 3×4 cm was shaved on the dorsum. The thickness of both pinnae was recorded using a constant-loading dial micrometer (Mitutoyo, Japan).
On day 5, baseline pinna thickness was measured. […] Left pinnae were treated with vehicle.
The immune reaction induced using the above procedure, is characterized by swelling at the site of challenge, and by an infiltration of monocytes/macrophages and lymphocytes into the epidermis and dermis (29-31). […]

The test system of experiment [2] is skin DTH, DNFB challenge (pinna thickness). The experiment can be described thus: Skin DTH response, hormones given before DNFB challenge of previously sensitized animals. The format is in vivo, rat. The method, then: as §1
(§2) Bilateral adrenalectomy (ADX) was performed using standard aseptic surgical techniques on animals fully anesthetized with the inhalant, methoxyflurane (Metofane; Pitman-Moore, Washington Crossing, N.J.). Sham adrenalectomized (SHAM) animals went through exactly the same procedure as ADX animals except that their adrenals were not removed. ADX animals were maintained on a low normalizing dose of corticosterone (20 μg/ml) administered through drinking choice of water or 3% saline. This was necessary for restoring important permissive functions of corticosterone which are lost following ADX (18-20). […] Unlike constant replacement (via pellets or osmotic pumps), drinking water corticosterone also facilitates the normal termination of a stress-induced ACTH response (22, 23), and simulates the circadian corticosterone rhythm as animals drink at the beginning of the active period (16).
The concentration and timing of each hormone administered is listed in the text and 3 0 figures. […] Epinephrine (Research Biochemicals International) was dissolved in sterile water.
DTH was induced by challenging the pinnae of previously sensitized rats with 2,4-dinitro-1-fluorobenzene (DNFB, Sigma, St. Louis, Mo.) or oxazalone (OXA, Sigma, St. Louis, Mo). On day 1 of sensitization, animals were anesthetized with the inhalant, methoxyflurane (Metofane; Pitman-Moore, Washington Crossing, N.J.). No anesthesia was used subsequently. An area of approximately 3×4 cm was shaved on the dorsum. The thickness of both pinnae was recorded using a constant-loading dial micrometer (Mitutoyo, Japan). On days 1 and 2 of sensitization, one hundred microliters of DNFB (1% (w/v) in 4:1, acetone:olive oil) or one hundred microliters of OXA (1.5% (w/v) in ethanol) were applied to the shaved dorsum. On day 5, baseline pinna thickness was measured. On day 6, after stress or hormone administration, the dorsal surface of the right pinnae of all animals was challenged with 50 μl of DNFB (0.5% in 4:1 acetone:olive oil) or OXA (0.75% in ethanol). Left pinnae were treated with vehicle. Pinna thickness was measured at the times shown. Measurements were made (on same relative region of pinna) gently and rapidly to avoid displacing or compressing edema fluid and changing pinna thickness.
The immune reaction induced using the above procedure, is characterized by swelling at the site of challenge, and by an infiltration of monocytes/macrophages and lymphocytes into the epidermis and dermis (29-31). A positive correlation between the intensity of the immune reaction and the increase in pinna thickness has been reported (32, 33). This model for skin DTH reactions has been widely used to monitor cell-mediated immune responses in vivo (30, 34).
For all experiments, repeated measures were made on each animal. Significant differences between timepoints within a specific leukocyte subpopulation were analyzed using the Student's t-test as a test for significant differences between means. […] Data are expressed as mean ±SEM in all figures. A computer statistics package was used for statistical analyses (SYSTAT v5.2.1, Systat Inc., Evanston, Ill.).

The test system of experiment [3] is skin DTH, OXA challenge (pinna thickness). The experiment can be described thus: Skin DTH response, hormones given before OXA challenge of previously sensitized ADX animals. The format is in vivo, rat. Particulars: for skin DTH vs vehicle: epinephrine 0.5 mg/kg, corticosterone 5 mg/kg, or both, OXA (0.75%) challenge 2 h after hormone administration. The method, then:
as §1, §2
The concentration and timing of each hormone administered is listed in the text and 3 0 figures. […]
DTH was induced by challenging the pinnae of previously sensitized rats with 2,4-dinitro-1-fluorobenzene (DNFB, Sigma, St. Louis, Mo.) or oxazalone (OXA, Sigma, St. Louis, Mo). […] The thickness of both pinnae was recorded using a constant-loading dial micrometer (Mitutoyo, Japan). […] On day 5, baseline pinna thickness was measured. […] Pinna thickness was measured at the times shown. […]
For all experiments, repeated measures were made on each animal. Significant differences between timepoints within a specific leukocyte subpopulation were analyzed using the Student's t-test as a test for significant differences between means. […] Data are expressed as mean ±SEM in all figures. […]

In experiment [4] the test system is lymphocytes in cervical lymph nodes. In words: Cellularity of cervical lymph nodes draining the site of the skin DTH reaction. The settings on record: ADX animals, epinephrine 0.5 mg/kg, corticosterone 5 mg/kg, or both, OXA challenge 2 h after administration, 48 h after antigen exposure. The format is in vivo, rat. On the procedure: Animals were rapidly sacrificed and cervical lymph nodes were dissected and placed in sterile PBS on ice (n=3 per treatment group). Each lymph node was subsequently weighed and disrupted between the frosted ends of two microscope slides. Suspensions of leukocytes were prepared in PBS and stored on ice for cell counting, immunofluorescent staining, and flow cytometry. White blood cell counts and lymphocyte-neutrophil differentials were obtained on a hematology analyzer (F800, Sysmex, McGraw Park, Ill.). Specific leukocyte subtypes were measured by immunofluorescent antibody staining and subsequent analysis using three color flow cytometry (FACScan, Becton Dickinson, San Jose, Calif.). T cells were identified using the following monoclonal antibodies (Caltag, Burlingame, Calif.): CD3-FITC (1F4), CD4-PE (w3/25), CD8-TC (OX8). Briefly, cell suspensions were incubated with antibody for 20 min at room temperature, washed with PBS, and read on the FACScan with 3,000 to 5,000 events being acquired from each preparation. Appropriate isotype controls were used to set the negative criteria. Data were analyzed using Cell Quest software (Becton Dickinson, San Jose, Calif.). For all experiments, repeated measures were made on each animal. Significant differences between timepoints within a specific leukocyte subpopulation were analyzed using the Student's t-test as a test for significant differences between means. […] Data are expressed as mean ±SEM in all figures. A computer statistics package was used for statistical analyses (SYSTAT v5.2.1, Systat Inc., Evanston, Ill.).

The target of experiment [5] is T1, corticosteroid binding globulin (Homo sapiens, UniProt P08185).
T1 sequence (P08185 23-405): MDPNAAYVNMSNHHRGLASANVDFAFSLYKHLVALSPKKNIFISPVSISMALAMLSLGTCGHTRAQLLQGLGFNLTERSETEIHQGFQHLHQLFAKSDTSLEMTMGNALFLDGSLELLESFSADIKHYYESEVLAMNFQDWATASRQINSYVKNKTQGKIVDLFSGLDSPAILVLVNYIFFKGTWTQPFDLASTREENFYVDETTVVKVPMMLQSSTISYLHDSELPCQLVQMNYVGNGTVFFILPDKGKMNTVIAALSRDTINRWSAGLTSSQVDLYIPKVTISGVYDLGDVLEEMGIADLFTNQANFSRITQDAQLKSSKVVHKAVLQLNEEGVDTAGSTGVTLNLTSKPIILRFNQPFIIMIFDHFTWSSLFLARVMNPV
Particulars: plasma protein; cited from earlier work.

As to `C[C@]12C[C@H](O)[C@H]3[C@@H](CCC4=CC(=O)CC[C@@]43C)[C@@H]1CC[C@@H]2C(=O)CO` [corticosterone], in experiment [1], the “DTH response (immune reaction at challenge or recall phase) vs vehicle” value was “enhance the immune reaction observed during the challenge or recall phase of DTH”. Moreover, the “skin DTH vs vehicle” value in experiment [2] (corticosterone 400 μg/ml in drinking water, chronic (6 days), DNFB challenge) is given as “significantly suppressed skin DTH”; in experiment [2] (corticosterone 400 μg/ml in drinking water, chronic (6 days), DNFB challenge, listed as Corticosterone), “lower DTH responses than control animals”; in experiment [2] (corticosterone 5 mg/kg ip, acute, ADX animals, DNFB challenge two hours after administration) it was “significant enhancement of skin DTH”; in experiment [2] (corticosterone 5 mg/kg ip, acute, ADX animals, DNFB challenge two hours after administration, listed as Corticosterone), “significantly larger DTH response than vehicle treated animals”; in experiment [2] (corticosterone 100 or 400 μg/ml in drinking water for four hours (acute), adrenal-intact animals, DNFB challenge), “significant enhancement of skin DTH; also recorded: enhanced the DTH response”; in experiment [2] (corticosterone 100 or 400 μg/ml in drinking water for four hours (acute), adrenal-intact animals, DNFB challenge, listed as Corticosterone) it was “significantly larger DTH response than vehicle treated animals”. Besides, the “skin DTH vs vehicle” value was “significantly suppressed skin DTH” in experiment [2] (corticosterone high dose 40 mg/kg, acute, ADX animals, DNFB challenge); “lower DTH responses than control animals” in experiment [2] (corticosterone high dose 40 mg/kg, acute, ADX animals, DNFB challenge, listed as Corticosterone); “enhanced skin DTH; also recorded: enhanced DTH response” in experiment [3]. In addition, the “immuno-enhancement of skin DTH compared with epinephrine” value in experiment [3] (corticosterone 5 mg/kg vs epinephrine 500 μg/kg, OXA challenge 2 h after administration) is reported as “greater than that induced by epinephrine”. Also, the “lymphocyte numbers in cervical lymph nodes vs vehicle” value in experiment [4] is “significantly larger numbers of lymphocytes in cervical lymph nodes; also recorded: higher lymphocyte numbers in cervical lymph nodes”. The “binding to corticosteroid binding globulin” value in experiment [5] is given as “binds a large proportion of circulating corticosterone”.

`CNC[C@H](O)c1ccc(O)c(O)c1` [epinephrine, reference compound]: in experiment [1], the “DTH response (immune reaction at challenge or recall phase) vs vehicle” value is “enhance the immune reaction observed during the challenge or recall phase of DTH”. The “skin DTH vs vehicle” value in experiment [2] (epinephrine 0.05, 0.25, 0.5 mg/kg, acute, ADX animals, DNFB challenge two hours after administration) is “significant dose-dependent enhancement of skin DTH”; in experiment [2] (epinephrine 0.05, 0.25, 0.5 mg/kg, acute, ADX animals, DNFB challenge two hours after administration, listed as Epinephrine), “dose dependent increase in skin DTH”; in experiment [3] it was “enhanced skin DTH; also recorded: enhanced DTH response”. Besides, the entries for the “lymphocyte numbers in cervical lymph nodes vs vehicle” value in experiment [4] and in experiment [4] (listed as Epinephrine) were “significantly larger numbers of lymphocytes in cervical lymph nodes” and “higher lymphocyte numbers in cervical lymph nodes”, respectively.
